The subject of series [1] is Mus musculus. Nature of the series: In vivo toxic dose of injected compound at a dose of 5 to 100 ug at which 50% of mice died within 1 hr of treatment. The class given is ADME, organism-based.
Series [2] deals with Mus musculus. As to the kind of experiment: In vivo behavioral response evoked when a dose of 100 microg injected into mice under light ether anesthesia; No response. The class given is functional, organism-based.
Series [3] relates to Mus musculus. As to the kind of experiment: In vivo toxic dose of injected compound at a dose of 10 to 100 ug at which 50% of mice died within 1 hr of treatment. Type of series: ADME, organism-based.

Among the data in ChEMBL document CHEMBL1129313, “Oxidation chemistry of (-)-norepinephrine in the presence of L-cysteine” (J Med Chem, 1996) are LD50 and Activity values, retold here.

Activity calls are given as the source filed them. The calls are words filed in the database; no cut-off is given here.

Compound `NCC(O)c1cc(O)c2c(c1)SCC(C(=O)O)N2` (stereo unspecified) displayed an LD50 in the series with Mus musculus [1] of 17.8 µg.
With `NCC(O)c1cc(SCC(N)C(=O)O)c(O)c(O)c1SCC(N)C(=O)O` (stereo unspecified), the outcome in the series on Mus musculus [2] was inactive.
Same read-out and setting: with `NCC(O)c1cc(O)c(O)c(SCC(N)C(=O)O)c1` (stereo unspecified) the entry was “inactive”.
Consider `NCC(O)c1c2c(c(O)c(SCC(N)C(=O)O)c1SCC(N)C(=O)O)NC(C(=O)O)CS2` (stereo unspecified), for which the result with Mus musculus [2] was inactive.
In the series on Mus musculus [3], `NCC(O)c1ccc(O)c2c1SCC(C(=O)O)N2` (stereo unspecified) registered an LD50 of 23.4 µg.
Take `NCC(O)c1cc(SCC(N)C(=O)O)c(O)c2c1SCC(C(=O)O)N2` (stereo unspecified): the outcome with Mus musculus [2] was inactive.
